ChEMBL document CHEMBL1201862, “PubChem BioAssay data set” (2004)
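Five compound concentrations were applied to cells in 96-well plates for 48 hours; endpoints were derived by simple linear interpolation of the resulting dose-response curve. At the GI50, growth is halved.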 The source made the active and inactive calls. Cut-off read from the data, not from the text of the source: active = GI50 up to about 1.1 µM and inactive = higher.

Columns and labels:
Experiment in all cases: NCI tumour cell line growth inhibition, 48 h
SF-539 = system: SF-539
MDA-N = system: MDA-N
A549 = system: A549
UO-31 = system: UO-31
UACC-257 = system: UACC-257
NCI/ADR-RES = system: NCI/ADR-RES
OVCAR-5 = system: OVCAR-5
CAKI-1 = system: CAKI-1
NCI-H226 = system: NCI-H226
RXF 393 = system: RXF 393
HOP-62 = system: HOP-62
SF-268 = system: SF-268
MOLT-4 = system: MOLT-4
BT-549 = system: BT-549
HCT-15 = system: HCT-15
TK-10 = system: TK-10
HCT-116 = system: HCT-116
786-0 = system: 786-0
HT-29 = system: HT-29
Malme-3M = system: Malme-3M

| Structure (SMILES) | GI50 (SF-539) | GI50 (MDA-N) | GI50 (A549) | GI50 (UO-31) | GI50 (UACC-257) | GI50 (NCI/ADR-RES) | GI50 (OVCAR-5) | GI50 (CAKI-1) | GI50 (NCI-H226) | GI50 (RXF 393) | GI50 (HOP-62) | GI50 (SF-268) | GI50 (MOLT-4) | GI50 (BT-549) | GI50 (HCT-15) [µM] | GI50 (TK-10) | GI50 (HCT-116) | GI50 (786-0) | GI50 (HT-29) | GI50 (Malme-3M) |
| --- | --- | --- | --- | --- | --- | --- | --- | --- | --- | --- | --- | --- | --- | --- | --- | --- | --- | --- | --- | --- |
| Cc1ccc(-c2cs/c(=N\c3c(C)n(C)n(-c4ccccc4)c3=O)n2CCO)cc1 | > 100 µM (inactive) | > 100 µM (inactive) | > 100 µM (inactive) | > 100 µM (inactive) | 53.8 µM (inactive) | 65.6 µM (inactive) | > 100 µM (inactive) | > 100 µM (inactive) | > 100 µM (inactive) | > 100 µM (inactive) | > 100 µM (inactive) | > 100 µM (inactive) | 87.5 µM (inactive) | 74.3 µM (inactive) | > 100 | > 100 µM (inactive) |  |  |  |  |
| Cc1ccc(CSC(=N)Nc2ccccc2)cc1C | 22.9 µM (inactive) | 18.9 µM (inactive) | 28.3 µM (inactive) |  | 17.4 µM (inactive) | 20.4 µM (inactive) | 20.2 µM (inactive) | 19.9 µM (inactive) | 20.9 µM (inactive) | 15.7 µM (inactive) | 23.7 µM (inactive) | 17 µM (inactive) | 24.2 µM (inactive) | 22.3 µM (inactive) | 23.5 | 28.5 µM (inactive) | 16.6 µM (inactive) | 19.3 µM (inactive) | 19.1 µM (inactive) | 17.1 µM (inactive) |
| C/C(=N\NC(=S)NC(C)(C)C)c1ccccn1 | 1.88 µM (inactive) | 0.131 µM (active) | 0.248 µM (active) | 0.189 µM (active) | < 0.01 µM (active) | < 0.01 µM (active) |  | < 0.0333 µM (active) | 0.0675 µM (active) | < 0.01 µM (active) | < 0.0222 µM (active) | 1.39 µM (inactive) | < 0.01 µM (active) | 3.1 µM (inactive) | < 0.01 | 0.358 µM (active) | < 0.01 µM (active) | < 0.0406 µM (active) |  | 2.83 µM (inactive) |
| CCOC(=O)Nc1ccc(S(=O)(=O)Nn2cnnc2)cc1 | 22.4 µM (inactive) | 22 µM (inactive) | 60.4 µM (inactive) | 60.1 µM (inactive) | > 100 µM (inactive) | 37.1 µM (inactive) | > 100 µM (inactive) | 47.1 µM (inactive) |  | > 100 µM (inactive) | 51.6 µM (inactive) | 83.2 µM (inactive) | 50.7 µM (inactive) | 53.5 µM (inactive) | 50.1 | 85.5 µM (inactive) | 30.1 µM (inactive) | 46.5 µM (inactive) | 20.3 µM (inactive) | 44.3 µM (inactive) |
| CC(C)(C)[Si](C)(C)OCCCCC1CC2(S(=O)(=O)C3=CC=C=C=C3)ON1CC2S(=O)(=O)c1ccccc1 (configuration not stated) | > 100 µM (inactive) | > 100 µM (inactive) | > 100 µM (inactive) | > 100 µM (inactive) | 84.9 µM (inactive) | > 100 µM (inactive) | > 100 µM (inactive) |  | > 100 µM (inactive) | > 100 µM (inactive) | > 100 µM (inactive) | > 100 µM (inactive) | > 100 µM (inactive) | > 100 µM (inactive) | > 100 | > 100 µM (inactive) | > 100 µM (inactive) | > 100 µM (inactive) | > 100 µM (inactive) |  |
| CCCCn1cnc2c(c(CC#N)nn2-c2ccccc2)c1=N |  | 38.1 µM (inactive) | 83.8 µM (inactive) | 60.4 µM (inactive) | 35.4 µM (inactive) | 41.2 µM (inactive) | > 100 µM (inactive) | > 100 µM (inactive) | 79.1 µM (inactive) | 70.1 µM (inactive) | > 100 µM (inactive) | 71.1 µM (inactive) | 33.1 µM (inactive) | 37.8 µM (inactive) | 36.8 | 64.7 µM (inactive) | 48.6 µM (inactive) | 57.1 µM (inactive) | 33.4 µM (inactive) | 63.5 µM (inactive) |
| Oc1ccc(-c2nc3ccc(Cl)cc3s2)cc1 | 16.2 µM (inactive) | 18.8 µM (inactive) | 20.8 µM (inactive) | 14.2 µM (inactive) | 19.6 µM (inactive) | 23.4 µM (inactive) | 17.9 µM (inactive) | 20.2 µM (inactive) | 20 µM (inactive) | 19.8 µM (inactive) |  | 17.2 µM (inactive) | 26.7 µM (inactive) | 18.7 µM (inactive) | 15.7 | 20.4 µM (inactive) | 16 µM (inactive) |  | 18.4 µM (inactive) | 19.3 µM (inactive) |
| c1ccc(N2N=C3N(c4ccccc4)C2N3c2ccccc2)cc1 | 22.3 µM (inactive) | 19.4 µM (inactive) | 47.3 µM (inactive) | 58.9 µM (inactive) | 23.1 µM (inactive) | > 100 µM (inactive) | 71.9 µM (inactive) | 88.7 µM (inactive) |  | 45.3 µM (inactive) | 58.2 µM (inactive) | 52.8 µM (inactive) | 16.5 µM (inactive) | 68.2 µM (inactive) | 42.9 | 71.3 µM (inactive) | 31.3 µM (inactive) |  | 29.4 µM (inactive) | 17.5 µM (inactive) |
| CC(=O)NCCc1c(-c2[nH]c3ccccc3c2CCNC(C)=O)[nH]c2ccccc12 | 74.5 µM (inactive) | > 100 µM (inactive) | > 100 µM (inactive) | > 100 µM (inactive) | > 100 µM (inactive) | 87.1 µM (inactive) | 66.7 µM (inactive) | > 100 µM (inactive) | > 100 µM (inactive) | > 100 µM (inactive) | 85.7 µM (inactive) | > 100 µM (inactive) | > 100 µM (inactive) | > 100 µM (inactive) | > 100 | 92.7 µM (inactive) | > 100 µM (inactive) | 35.7 µM (inactive) | > 100 µM (inactive) |  |
| Cc1cc(C)c2cc(N)c(Cl)nc2n1 | > 100 µM (inactive) | > 100 µM (inactive) | > 100 µM (inactive) | 63.4 µM (inactive) | > 100 µM (inactive) | > 100 µM (inactive) | > 100 µM (inactive) | > 100 µM (inactive) | > 100 µM (inactive) | > 100 µM (inactive) |  | > 100 µM (inactive) |  | > 100 µM (inactive) | 60.5 | > 100 µM (inactive) | > 100 µM (inactive) | > 100 µM (inactive) | 63.5 µM (inactive) | > 100 µM (inactive) |
| CC(C)CCCC(=O)CCCCCCC(=O)CCN(O)C(=O)C(N)CO (configuration not stated) | 16 µM (inactive) | 21.8 µM (inactive) |  | 12.2 µM (inactive) | 17.3 µM (inactive) | 16.1 µM (inactive) | 19.8 µM (inactive) | 16 µM (inactive) | 14 µM (inactive) | 11 µM (inactive) | 21.2 µM (inactive) | 26.2 µM (inactive) | 41.7 µM (inactive) | 14.7 µM (inactive) | 15.3 | 14.7 µM (inactive) | 17.7 µM (inactive) | 16 µM (inactive) | 18.7 µM (inactive) | 13.7 µM (inactive) |
| COC1CC(OC2C(C)OC(OC3C(C)OC(OC4C(C)OC(O[C@H]5CC[C@@]6(C)C(=CC[C@]7(O)[C@@H]6C[C@@H](OC(=O)/C=C/c6ccccc6)[C@@]6(C)[C@]7(O)CC[C@@]6(O)C(C)=O)C5)CC4OC)CC3OC)CC2OC)OC(C)C1O (some centres not stated) | > 12.5 µM (inactive) | > 12.5 µM (inactive) | > 12.5 µM (inactive) | 3.11 µM (inactive) | > 12.5 µM (inactive) | > 12.5 µM (inactive) | > 12.5 µM (inactive) | > 12.5 µM (inactive) | > 12.5 µM (inactive) |  | > 12.5 µM (inactive) | > 12.5 µM (inactive) | > 12.5 µM (inactive) | > 12.5 µM (inactive) | > 12.5 | > 12.5 µM (inactive) | > 12.5 µM (inactive) | > 12.5 µM (inactive) | > 12.5 µM (inactive) | > 12.5 µM (inactive) |
| CC(=O)NC1C(OCc2ccccc2)OC(CO)C(O)C1OC(C)C(=O)NC(C(=O)NC(CCC(=O)Nc1ccc2c(c1)CN1C(=O)c3ccccc3C1=N2)C(N)=O)C(C)C (configuration not stated) | > 100 µM (inactive) | > 100 µM (inactive) | > 100 µM (inactive) | > 100 µM (inactive) | > 100 µM (inactive) | > 100 µM (inactive) | > 100 µM (inactive) | > 100 µM (inactive) |  | > 100 µM (inactive) | > 100 µM (inactive) | > 100 µM (inactive) | > 100 µM (inactive) | > 100 µM (inactive) | > 100 | > 100 µM (inactive) | > 100 µM (inactive) | > 100 µM (inactive) | > 100 µM (inactive) | > 100 µM (inactive) |
| COc1ccc2c(c1)OCC1=C2Oc2ccccc2C1 | 27.5 µM (inactive) | 25 µM (inactive) | 48.5 µM (inactive) | 50.4 µM (inactive) | 31.2 µM (inactive) | 44.4 µM (inactive) | 30.1 µM (inactive) | 49.7 µM (inactive) | 27 µM (inactive) |  | 55.3 µM (inactive) | 81.3 µM (inactive) | 20.3 µM (inactive) | 28 µM (inactive) | 31 | 40.2 µM (inactive) | 36.6 µM (inactive) | 38 µM (inactive) | 26.7 µM (inactive) | > 100 µM (inactive) |
| CSc1c(C#N)c(O)n(-c2ccc(Cl)cc2)c(=O)c1C(C)=O | 32.9 µM (inactive) | 55.5 µM (inactive) | 50.2 µM (inactive) | 24.9 µM (inactive) | > 100 µM (inactive) | 38.4 µM (inactive) | 45.7 µM (inactive) | 18.7 µM (inactive) | 26.9 µM (inactive) | 33.6 µM (inactive) |  | 61.7 µM (inactive) | 23 µM (inactive) | 90.6 µM (inactive) | 27.3 | 42.6 µM (inactive) | 38.1 µM (inactive) | 37.7 µM (inactive) | 34.8 µM (inactive) | 23.3 µM (inactive) |
